According to patent publication US9879002B2, “PDE10 inhibitors and related compositions and methods” (Omeros Corporation, priority 2015, dated 2018):
pIC50: −log10 of the molar value. ≈ marks a conversion by molar mass, not a printed value. Like-named read-outs stand apart in the source and are kept apart here.

Experiments:
PDE10 [1] = biological target: PDE10 (Homo sapiens, UniProt Q9Y233); assay: PDE10 biochemical assay (scintillation proximity assay, [3H]-cGMP substrate)
Procedure: The phosphodiesterase (PDE) activity was measured using a scintillation proximity assay (SPA) with [^3H]-cGMP as the substrate. Purified PDE10 was stored in 40 mM Tris-Cl (pH 8.0)/100 mM NaCl/0.04% Tween-20/20% Glycerol/3 mM DTT and then used to prepare a 10×PDE solution in 50 mM Tris-Cl (pH 7.5)/8.3 mM MgCl2/1.7 mM EGTA. Assays contained (final concentrations): 50 mM Tris-Cl (pH 7.5)/8.3 mM MgCl2/1.7 mM EGTA/0.5 mg/ml BSA/1% DMSO and 2 ng PDE10 in a final volume of 0.1 mL. Inhibition was evaluated at 8 concentrations in duplicate. Reactions were initiated by addition of enzyme and were terminated after 20 minutes at 30° C. by the addition of 50 μl of SPA beads containing Zn^++. The mixture was shaken, allowed to settle for at least 1 hour, and counted in a Wallac plate counter. Results (net cpm) were fitted to a four parameter logistic model using Excel Solver®.

[2] = Solubility assay in simulated Intestinal Fluid pH 7.5; assay type: physicochemical; conditions: fassgf or other biorelevant, kinetic from dmso stock, shaken 24 hours at room temperature, from 10 mM DMSO stock, detection limit approximately 1 μM, read-out: Solubility test results: Conc. (μM), pH 7.5 (IF)
Procedure: Solubility of each compound was measured by adding 4 μl of a 10 mM DMSO compound stock to 396 μl buffer (either a simulated Gastric Fluid pH 1.2 (0.2% NaCl, 0.7% HCl) or simulated Intestinal Fluid pH 7.5 (0.68% KHPO4, pH with NaOH)). This was shaken for 24 hours at room temperature, spun at 14,000 rpm for 5 minutes, and the supernatant was transferred into a clean eppendorf tube. The absorption spectra of the compound-containing supernatant were measured from 220 to 400 nm and compared with the absorption spectra of a 10 μM acetonitrile stock of the same compound. The concentration of the compound in the supernatant was calculated by comparing the absorbance maximum of the compound in the simulated buffer to that in acetonitrile.

PDE10 [3] = biological target: T1, PDE10 (Mus musculus, UniProt Q8CA95); conditions: cited from Soderling and Beavo 2000; read-out: IC50 (50% inhibitory concentration); cited from earlier work
T1 sequence (Q8CA95 1-790): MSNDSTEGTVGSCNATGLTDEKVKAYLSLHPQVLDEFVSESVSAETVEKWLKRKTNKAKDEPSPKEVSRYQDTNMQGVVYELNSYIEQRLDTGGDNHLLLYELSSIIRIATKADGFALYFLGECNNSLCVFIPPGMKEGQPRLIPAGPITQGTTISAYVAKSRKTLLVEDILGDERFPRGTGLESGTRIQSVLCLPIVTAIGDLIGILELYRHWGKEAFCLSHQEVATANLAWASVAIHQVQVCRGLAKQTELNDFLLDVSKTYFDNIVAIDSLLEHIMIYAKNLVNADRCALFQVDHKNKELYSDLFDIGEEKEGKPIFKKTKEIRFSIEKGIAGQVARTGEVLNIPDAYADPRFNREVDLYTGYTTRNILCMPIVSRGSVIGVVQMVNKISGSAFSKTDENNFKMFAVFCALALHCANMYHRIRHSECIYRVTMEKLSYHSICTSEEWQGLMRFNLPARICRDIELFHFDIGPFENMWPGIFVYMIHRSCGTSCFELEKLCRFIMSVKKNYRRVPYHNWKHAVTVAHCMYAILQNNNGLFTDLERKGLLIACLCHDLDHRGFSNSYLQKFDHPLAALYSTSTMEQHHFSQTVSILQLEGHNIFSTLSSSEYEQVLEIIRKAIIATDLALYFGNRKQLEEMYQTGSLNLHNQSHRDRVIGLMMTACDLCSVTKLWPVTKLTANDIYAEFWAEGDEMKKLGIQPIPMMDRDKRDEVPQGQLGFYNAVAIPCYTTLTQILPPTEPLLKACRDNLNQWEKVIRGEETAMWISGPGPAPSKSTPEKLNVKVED

[4] = SPA, [3H]-cGMP, 20 minutes at 30° C., 8 concentrations in duplicate, read-out: Average IC50
[5] = text statement on the PDE10 biochemical assay, read-out: IC50

Sequence of PDE10 (Homo sapiens, UniProt Q9Y233) (Q9Y233 whole entry): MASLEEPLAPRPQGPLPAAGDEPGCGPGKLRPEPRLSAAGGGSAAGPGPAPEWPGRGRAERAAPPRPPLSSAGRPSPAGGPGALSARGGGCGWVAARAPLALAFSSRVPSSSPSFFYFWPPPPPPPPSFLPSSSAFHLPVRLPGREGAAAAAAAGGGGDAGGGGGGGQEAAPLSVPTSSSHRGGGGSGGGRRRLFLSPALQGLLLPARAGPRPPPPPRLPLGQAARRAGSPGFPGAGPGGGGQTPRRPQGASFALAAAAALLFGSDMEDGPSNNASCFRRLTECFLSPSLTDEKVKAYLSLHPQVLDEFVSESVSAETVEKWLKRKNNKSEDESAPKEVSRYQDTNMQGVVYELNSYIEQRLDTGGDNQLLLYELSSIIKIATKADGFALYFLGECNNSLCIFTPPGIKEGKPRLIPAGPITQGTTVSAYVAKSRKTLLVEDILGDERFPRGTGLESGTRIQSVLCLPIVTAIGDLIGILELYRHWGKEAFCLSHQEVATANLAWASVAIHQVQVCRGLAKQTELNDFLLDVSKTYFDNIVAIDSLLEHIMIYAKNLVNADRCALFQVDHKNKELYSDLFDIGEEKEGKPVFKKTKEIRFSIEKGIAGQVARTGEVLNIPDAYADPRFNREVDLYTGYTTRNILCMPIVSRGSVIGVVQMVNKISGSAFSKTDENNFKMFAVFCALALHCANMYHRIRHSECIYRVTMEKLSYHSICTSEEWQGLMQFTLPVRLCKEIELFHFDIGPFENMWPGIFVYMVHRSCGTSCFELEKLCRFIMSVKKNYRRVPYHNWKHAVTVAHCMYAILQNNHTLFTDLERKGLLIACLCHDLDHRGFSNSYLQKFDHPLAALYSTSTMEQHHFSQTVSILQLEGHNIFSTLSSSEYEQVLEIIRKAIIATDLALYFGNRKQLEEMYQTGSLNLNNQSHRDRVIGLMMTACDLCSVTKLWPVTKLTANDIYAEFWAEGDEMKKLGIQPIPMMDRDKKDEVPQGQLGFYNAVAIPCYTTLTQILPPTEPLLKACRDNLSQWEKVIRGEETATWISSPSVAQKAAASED

| Compound | pIC50 (PDE10 [1]; [4]) | pIC50 (PDE10 [1]; [5]) | solubility at 24 h [2] | pIC50 (PDE10 [3]) |
| --- | --- | --- | --- | --- |
| CCOC(C(=O)c1ccc(-c2cc(O)c(Cl)c(OC)c2)o1)c1ccc(-c2nnc(C)s2)cc1 (centres unmarked) [Compound 1, 1-[5-(4-chloro-3-hydroxy-5-methoxyphenyl)furan-2-yl]-2-ethoxy-2-[4-(5-methyl-1,3,4-thiadiazol-yl)phenyl]ethanone] | 7.42 | ≥ 6.00 | 2.5 µM (≈ 1.21 µg/mL) |  |
| CCOC(C(=O)c1ccc(-c2cc(OC)c(Cl)c(OC)c2)o1)c1ccc(-c2nnc(C)s2)cc1 (centres unmarked) [Compound A, 1-(5-(4-chloro-3,5-dimethoxyphenyl)furan-2-yl)-2-ethoxy-2-(4-(5-methyl-l,3,4-thiadiazol-2-yl)phenyl)ethan-1-one, reference compound] |  |  | < 1 µM |  |
| CCOC(C(=O)c1ccc(-c2cc(OC)c(Cl)c(O[C@H]3O[C@H](C(=O)O)[C@@H](O)[C@H](O)[C@H]3O)c2)o1)c1ccc(-c2nnc(C)s2)cc1 (stereo partly drawn) [Compound 3, (2S,3S,4S,5R,6R)-6-(2-chloro-5-(5-(2-ethoxy-2-(5-methyl-1,3,4-thiadiazol-2-yl)phenyl)acetyl)furan-2-yl-methoxyphenoxy)-3,4,5-trihydroxytetrahydro-2H-pyran-2-carboxylic acid] | 6.19 | ≥ 6.00 | 78.3 µM (≈ 51.8 µg/mL) |  |
| CCOC(c1ccc(-c2nnc(C)s2)cc1)C(O)c1ccc(-c2cc(OC)c(Cl)c(OC)c2)o1 (centres unmarked) [Compound 4, 1-(5-(4-chloro-3,5-dimethoxyphenyl)furan-2-yl)-2-ethoxy-2-(4-(5-methyl-1,3,4-thiadiazol-2-yl)phenyl)ethan-1-ol] | 6.90 | ≥ 6.00 | 2.5 µM (≈ 1.25 µg/mL) |  |
| CC(C)Cn1c(=O)n(C)c(=O)c2[nH]cnc21 [IBMX] |  |  |  | 5.59 |
| CCOC(C(=O)c1ccc(-c2cc(OC)c(Cl)c(OC)c2)o1)c1ccc(-c2nnc(CO)s2)cc1 (centres unmarked) [Compound 2, 1-(5-(4-chloro-3,5-dimethoxyphenyl)furan-2-yl)-2-ethoxy-2-(4-(5-(hydroxymethyl)-1,3,4-thiadiazol-2-yl)phenyl)ethan-1-one] | 8.89 | ≥ 6.00 | 5.8 µM (≈ 2.99 µg/mL) |  |
